The record followed here is patent US20260152503A1, “SPIROBICYCLIC COMPOUNDS” (ACERAND THERAPEUTICS (HONG KONG) LIMITED, priority 2022, published 2026).

One assay relates to KATO III. Put plainly: 2D cell proliferation assay, KATO III. Type of assay: cell-based. As to conditions: Homo sapiens, 96 hours, CTG, read-out: Cell Line, IC50 KATO III. As for the experimental part: (§1) Low IC50 values are indicative of the high potency of the FGFR inhibitor compounds in this assay selling. […] Cell proliferation assays are performed in two-dimensional (2D)) anchorage-dependent conditions in 96 well plates (Corning® Black/Clear flat Bottom, Cat #3603) with the following cell lines: • Ba/F3 FGFR2-BICC1 (human […]): Mouse Ba/F3 cell line stably expressed exogenous human FGFR2-BICC1 fusion gene bearing V546F mutation in FGFR2 Ba/F3; • FGFR2-BICC1 (human FGFR2/[…]): Mouse Ba/F3 cell line stably expressed exogenous human FGFR2-BICC1 fusion gene bearing N549K mutation in FGFR2; • Snu-16: human gastric cancer cell with FGFR2 amplification; • KATO III: human gastric cancer cell with FGFR2 amplification; • AN3CA: Human endometrial cancer with FGFR2 mutation (k310R, N549K); • MFM-223: Human breast cancer with FGFR1/2 amplification; • MFE-296: Human endometrial cancer with FGFR2 mutation (N549K); • MFE-280: Human endometrial cancer with FGFR2 mutation ([…]); • NCI-H1581: human non-small cell lung cancer with FGFR1 amplification; • KG-1a: Acute myelogenous leukemia with FGFR1OP2-FGFR1 translocation; • DMS114: human small cell carcinoma of the lung with FGFR1 amplification; • RT112: human bladder cancer with FGFR3 overexpression/FGFR3-TACC3 fusion; • SW780: human bladder cancer with FGFR3 overexpression/FGFR3-BALAP2L1 fusion; • Hep3B: Liver cancer with FGF19 amplification (FGFR4 ligand); • AGS: Human gastric adenocarcinoma with Kras G12D mutation and FGFR wild type; • PC-9: human non-small cell lung cancer (NSCLC) with wild-type FGFR and an EGFR del19 mutation; or • H1975: human non-small cell lung cancer (NSCLC) with wild-type FGFR and EGFR L858R/T790M mutation.
(§2) Cell lines are purchased from the American Type Culture Collection (ATCC) or Sigma. All cell lines are maintained in RPMI-1640 or DMEM supplemented with 10% heat-inactivated fetal bovine serum.
(§3) Cells growing in the log phase are detached with Gibco™ TrypLE™ Express Enzyme and plated in 96 well plate at 3000 to 5000 cells/well in 100 μl of media. After overnight incubation at 37° C., 5% CO2 incubator, cells are treated with compounds (50 uL/well) at the final concentrations spanning from 0.000038 uM to 10 μM (4-fold serial dilution for total of 10 points). Cells are incubated at 37° C., 5% CO2, and 95% humidity incubator for 96 hours. At the end of incubation 2D CTG reagent from Promega was added to each well according to vendors recommendation and mixed for 10 min in dark. The luminescence signals are determined with a Biotek™ plate reader. Data is fitted using a sigmoidal curve analysis program (GraphPad Prism®) with variable hill slope and IC50 is determined.

For another assay, the system named is AN3CA. Nature of the assay: 2D cell proliferation assay, AN3CA. Type of assay: cell-based. As to conditions: Homo sapiens, AN3-CA, 96 hours, CTG, read-out: Cell Line, IC50 AN3CA. On the procedure: as §1, §2, §3
The target of another assay is T1, FGFR2 (Homo sapiens, UniProt P21802, K310R/N549K).
T1 construct: in FGFR aberrations of AN3CA (FGFR2/k310R, N549K); host or cells: AN3CA
Put plainly: pERK potency assay (In Cell ELISA), AN3CA cells. It counts as cell-based. As to conditions: for IC50: pERK, AN3CA (FGFR2/k310R, N549K) cells, 3 hours; for FGFR1 IC50/FGFR2 IC50 / FGFR3 IC50/FGFR2 IC50: selectivity ratio, pERK potency; for FGFR1 IC50/FGFR2 IC50: FGFR2 relative to FGFR1; for FGFR3 IC50/FGFR2 IC50: FGFR2 relative to FGFR3. In outline: (§4)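 IC50 values come from a 4-parameter sigmoidal fit of in-cell ELISA chemiluminescent pERK (Thr202/Tyr204) signal. Treatment lasted 3 h at 37 °C, final 0.000038 to 10 μM in 4-fold steps, using AN3CA (mutant FGFR2), DMS114 (amplified FGFR1) and RT112 (FGFR3 overexpression/fusion) cells.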
A general note: In an ELISA, binding on a coated surface is turned into a signal by an enzyme label.

The next assay concerns SNU-16. Nature of the assay: 2D cell proliferation assay, SNU-16. It counts as cell-based. As to conditions: Homo sapiens, 96 hours, CTG, read-out: Cell Line, IC50 SNU-16. On the procedure: as §1, §2, §3
The next assay concerns the target T2, FGFR3 (Homo sapiens, UniProt P22607).
T2 construct: RT112 (FGFR3 overexpression/FGFR3-TACC3 fusion); host or cells: RT112; the other entry of the earlier key: TACC3 (Q9Y6A5, Transforming acidic coiled-coil-containing protein 3)
Nature of the assay: pERK potency assay (In Cell ELISA), RT112 cells. It counts as cell-based. As to conditions: RT112 (FGFR3 overexpression/FGFR3-TACC3 fusion) cells, 3 hours. In outline: as §4

Another assay concerns the target T3, FGFR1 (Homo sapiens, UniProt P11362).
T3 construct: DMS114 (FGFR1 amplification); host or cells: DMS114
Put plainly: pERK potency assay (In Cell ELISA), DMS114 cells. Type of assay: cell-based. As to conditions: DMS114 (FGFR1 amplification) cells, 3 hours. In outline: as §4

A further assay addresses T4, Ba/F3 FGFR2-N549K (Homo sapiens, UniProt P21802, N549K, cells depend on it).
T4 construct: fused on or other part: Q9H694 (Protein bicaudal C homolog 1)
Nature of the assay: 2D cell proliferation assay, Ba/F3 FGFR2-N549K. Type of assay: cell-based, mouse. As to conditions: 96 hours, CTG, read-out: Cell Line, IC50 Ba/F3 FGFR2-N549K. On the procedure:
as §1, §2, §3

Another assay concerns the target T5, Ba/F3 FGFR2-V564F (Homo sapiens, UniProt P21802, V564F, cells depend on it).
T5 construct: fused on or other part: Q9H694 (Protein bicaudal C homolog 1)
Put plainly: 2D cell proliferation assay, Ba/F3 FGFR2-V564F. Type of assay: cell-based, mouse. As to conditions: 96 hours, CTG, read-out: Cell Line, IC50 Ba/F3 FGFR2-V564F. As for the experimental part:
as §1, §2, §3

The term IC50 denotes the concentration at which inhibition is half-maximal.

Molecules are shown by their SMILES. Where only a bound is given, the exact number is not on record here.

T1 sequence (P21802 22-821 K310R/N549K): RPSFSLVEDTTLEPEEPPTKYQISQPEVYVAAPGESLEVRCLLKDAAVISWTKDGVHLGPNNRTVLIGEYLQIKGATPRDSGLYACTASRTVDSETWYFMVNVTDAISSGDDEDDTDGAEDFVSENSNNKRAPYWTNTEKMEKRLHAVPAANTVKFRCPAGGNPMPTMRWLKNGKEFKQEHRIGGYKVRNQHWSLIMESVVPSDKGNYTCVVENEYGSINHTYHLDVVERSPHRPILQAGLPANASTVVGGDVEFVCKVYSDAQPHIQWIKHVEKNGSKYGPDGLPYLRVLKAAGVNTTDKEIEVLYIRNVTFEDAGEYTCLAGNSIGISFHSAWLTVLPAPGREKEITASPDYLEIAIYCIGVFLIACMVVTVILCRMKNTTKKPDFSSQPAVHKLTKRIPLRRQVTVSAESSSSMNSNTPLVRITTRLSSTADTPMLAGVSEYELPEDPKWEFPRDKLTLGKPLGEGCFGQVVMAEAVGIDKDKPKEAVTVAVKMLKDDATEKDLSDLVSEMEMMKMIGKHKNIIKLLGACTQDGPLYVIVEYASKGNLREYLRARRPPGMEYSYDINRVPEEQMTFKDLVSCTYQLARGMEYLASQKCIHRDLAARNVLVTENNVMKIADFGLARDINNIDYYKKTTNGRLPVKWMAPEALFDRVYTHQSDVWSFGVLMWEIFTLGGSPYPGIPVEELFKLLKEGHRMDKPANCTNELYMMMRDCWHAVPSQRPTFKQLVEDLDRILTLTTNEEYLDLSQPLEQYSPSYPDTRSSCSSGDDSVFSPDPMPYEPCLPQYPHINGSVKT
T4 sequence (P21802 whole entry N549K, the tested form may be a part): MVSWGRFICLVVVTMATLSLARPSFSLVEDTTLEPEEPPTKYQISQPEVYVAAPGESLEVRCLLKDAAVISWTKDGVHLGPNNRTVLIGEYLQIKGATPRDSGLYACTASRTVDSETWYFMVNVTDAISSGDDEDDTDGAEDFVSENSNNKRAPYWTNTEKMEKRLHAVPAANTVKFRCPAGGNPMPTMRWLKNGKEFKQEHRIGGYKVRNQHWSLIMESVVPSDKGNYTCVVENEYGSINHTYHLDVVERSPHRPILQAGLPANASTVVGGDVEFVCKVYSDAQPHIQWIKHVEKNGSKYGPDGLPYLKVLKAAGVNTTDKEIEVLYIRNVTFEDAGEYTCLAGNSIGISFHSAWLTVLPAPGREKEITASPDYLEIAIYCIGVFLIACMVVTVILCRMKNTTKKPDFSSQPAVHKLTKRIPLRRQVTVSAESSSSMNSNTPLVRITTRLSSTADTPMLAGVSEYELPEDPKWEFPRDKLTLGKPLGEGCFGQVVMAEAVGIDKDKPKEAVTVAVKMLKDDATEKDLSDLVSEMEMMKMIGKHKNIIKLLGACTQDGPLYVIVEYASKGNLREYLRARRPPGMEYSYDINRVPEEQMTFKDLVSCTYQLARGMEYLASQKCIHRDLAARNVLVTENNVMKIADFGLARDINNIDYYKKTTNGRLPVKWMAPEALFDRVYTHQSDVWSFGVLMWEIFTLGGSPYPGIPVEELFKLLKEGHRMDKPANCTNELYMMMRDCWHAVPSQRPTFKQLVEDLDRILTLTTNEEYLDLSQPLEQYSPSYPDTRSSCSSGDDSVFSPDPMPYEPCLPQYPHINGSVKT
T3 sequence (P11362 22-822): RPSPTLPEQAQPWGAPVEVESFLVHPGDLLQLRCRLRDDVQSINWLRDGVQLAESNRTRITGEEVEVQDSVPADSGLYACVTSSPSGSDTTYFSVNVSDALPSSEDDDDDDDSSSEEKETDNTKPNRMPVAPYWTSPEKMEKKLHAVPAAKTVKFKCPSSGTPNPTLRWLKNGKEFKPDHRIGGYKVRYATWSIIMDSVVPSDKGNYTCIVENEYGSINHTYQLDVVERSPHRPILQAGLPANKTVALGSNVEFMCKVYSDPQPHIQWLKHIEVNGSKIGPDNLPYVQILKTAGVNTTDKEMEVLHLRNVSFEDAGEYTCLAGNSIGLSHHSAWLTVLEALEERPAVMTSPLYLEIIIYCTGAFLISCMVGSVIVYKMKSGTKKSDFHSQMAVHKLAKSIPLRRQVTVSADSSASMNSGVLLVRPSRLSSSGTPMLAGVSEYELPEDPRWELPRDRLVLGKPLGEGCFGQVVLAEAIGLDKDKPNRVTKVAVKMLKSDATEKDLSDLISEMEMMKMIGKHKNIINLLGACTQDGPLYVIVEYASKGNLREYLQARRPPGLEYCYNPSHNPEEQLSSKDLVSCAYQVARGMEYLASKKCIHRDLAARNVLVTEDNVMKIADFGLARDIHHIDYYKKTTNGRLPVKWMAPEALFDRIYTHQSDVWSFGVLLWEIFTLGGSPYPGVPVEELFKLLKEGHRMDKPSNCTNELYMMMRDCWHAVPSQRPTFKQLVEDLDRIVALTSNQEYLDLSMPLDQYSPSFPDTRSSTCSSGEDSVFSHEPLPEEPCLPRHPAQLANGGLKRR
T5 sequence (P21802 whole entry V564F, the tested form may be a part): as the sequence (P21802 whole entry N549K, the tested form may be a part) above, with K549N, V564F counted along it

On to `C=CC(=O)N1CCC2(CC=C(c3c(-c4ccc(Oc5ncccn5)cc4)c4c(N)ncnc4n3C)CC2)CC1` [Example 4, 1-(9-(4-amino-7-methyl-5-(4-(pyrimidin-2-yloxy)phenyl)-7H-pyrrolo[2,3-d]pyrimidin-6-yl)-3-azaspiro[5.5]undec-8-en-3-yl)prop-2-en-1-one], for which the IC50 was 0.01 to 0.03 µM in the assay on KATO III; 0.03 to 0.1 µM with AN3CA; 0.001 to 0.01 µM on FGFR2; 0.001 to 0.01 µM in the assay with SNU-16; more than 0.1 µM at FGFR3; more than 0.1 µM at FGFR1. Further, the “FGFR1 IC50/FGFR2 IC50” value on FGFR2 is reported as “F (a selectivity ratio greater than 50 but less than or equal to 150)”. Moreover, at FGFR2, the “FGFR3 IC50/FGFR2 IC50” value was “G (a selectivity ratio greater than 150 but less than or equal to 500)”.

For the molecule `C=CC(=O)N1CCC2(CC=C(c3c(-c4ccc(OC)cc4)c4c(N)ncnc4n3C)CC2)CC1` [Example 8, 1-(9-(4-amino-5-(4-methoxyphenyl)-7-methyl-7H-pyrrolo[2,3-d]pyrimidin-6-yl)-3-azaspiro[5.5]undec-8-en-3-yl)prop-2-en-1-one], the IC50 in the assay with KATO III is 0.001 to 0.01 µM; in the assay on AN3CA, 0.001 to 0.01 µM; at FGFR2, not above 0.001 µM; in the assay with SNU-16, 0.001 to 0.01 µM; on FGFR3, more than 0.1 µM; at FGFR1, 0.03 to 0.1 µM. Also, the “FGFR1 IC50/FGFR2 IC50” value on FGFR2 is “G (a selectivity ratio greater than 150 but less than or equal to 500)”. In addition, at FGFR2, the “FGFR3 IC50/FGFR2 IC50” value is given as “H (a selectivity ratio greater than 500 but less than or equal to 1000)”.

For the molecule `C=CC(=O)N1CCC2(CC=C(c3c(-c4cccc(F)c4)c4c(N)ncnc4n3C)CC2)CC1` [Example 10, 1-(9-(4-amino-5-(3-fluorophenyl)-7-methyl-7H-pyrrolo[2,3-d]pyrimidin-6-yl)-3-azaspiro[5.5]undec-8-en-3-yl)prop-2-en-1-one], the IC50 in the assay with KATO III is 0.01 to 0.03 µM; with AN3CA, 0.03 to 0.1 µM; at FGFR2, 0.001 to 0.01 µM; in the assay with SNU-16, 0.01 to 0.03 µM; on FGFR3, more than 0.1 µM; at FGFR1, more than 0.1 µM. Besides, the “FGFR1 IC50/FGFR2 IC50” value at FGFR2 was “G (a selectivity ratio greater than 150 but less than or equal to 500)”. The “FGFR3 IC50/FGFR2 IC50” value on FGFR2 was “G (a selectivity ratio greater than 150 but less than or equal to 500)”.

With `C=CC(=O)N1CCC2(CC=C(c3c(-c4ccc(F)cc4)c4c(N)ncnc4n3C)CC2)CC1` [Example 11, 1-(9-(4-amino-5-(4-fluorophenyl)-7-methyl-7H-pyrrolo[2,3-d]pyrimidin-6-yl)-3-azaspiro[5.5]undec-8-en-3-yl)prop-2-en-1-one], the GI50 at Ba/F3 FGFR2-N549K is 0.001 to 0.01 µM; at Ba/F3 FGFR2-V564F, 0.03 to 0.1 µM. Also, the IC50 in the assay with KATO III is 0.03 to 0.1 µM; in the assay with AN3CA it was 0.03 to 0.1 µM; on FGFR2, 0.001 to 0.01 µM; in the assay with SNU-16, 0.01 to 0.03 µM; at FGFR3, more than 0.1 µM; on FGFR1 it was more than 0.1 µM. The “FGFR1 IC50/FGFR2 IC50” value at FGFR2 is listed as “I (a selectivity ratio greater than 1000 but less than or equal to 2000)”. Further, the “FGFR3 IC50/FGFR2 IC50” value on FGFR2 is recorded as “J (a selectivity ratio greater than 2000)”.

For the molecule `C=CC(=O)N1CCC2(CC=C(c3c(-c4cccc(OC)c4)c4c(N)ncnc4n3C)CC2)CC1` [Example 16, 1-(9-(4-amino-5-(3-methoxyphenyl)-7-methyl-7H-pyrrolo[2,3-d]pyrimidin-6-yl)-3-azaspiro[5.5]undec-8-en-3-yl)prop-2-en-1-one], the IC50 was 0.01 to 0.03 µM with KATO III; 0.03 to 0.1 µM in the assay with AN3CA; 0.001 to 0.01 µM at FGFR2; 0.01 to 0.03 µM in the assay with SNU-16; more than 0.1 µM at FGFR3; more than 0.1 µM on FGFR1. In addition, the “FGFR1 IC50/FGFR2 IC50” value at FGFR2 is on record as “F (a selectivity ratio greater than 50 but less than or equal to 150)”. Moreover, the “FGFR3 IC50/FGFR2 IC50” value at FGFR2 is listed as “G (a selectivity ratio greater than 150 but less than or equal to 500)”.

Consider `C=CC(=O)N1CCC2(CC=C(c3c(-c4ccc(OC(F)F)cc4)c4c(N)ncnc4n3C)CC2)CC1` [Example 17, 1-(9-(4-amino-5-(4-(difluoromethoxy)phenyl)-7-methyl-7H-pyrrolo[2,3-d]pyrimidin-6-yl)-3-azaspiro[5.5]undec-8-en-3-yl)prop-2-en-1-one], for which the IC50 in the assay with KATO III is 0.001 to 0.01 µM; with AN3CA, 0.01 to 0.03 µM; at FGFR2, not above 0.001 µM; with SNU-16 it was 0.001 to 0.01 µM; at FGFR3 it was more than 0.1 µM; at FGFR1 it was 0.03 to 0.1 µM. The “FGFR1 IC50/FGFR2 IC50” value on FGFR2 is reported as “G (a selectivity ratio greater than 150 but less than or equal to 500)”. The “FGFR3 IC50/FGFR2 IC50” value at FGFR2 is “G (a selectivity ratio greater than 150 but less than or equal to 500)”.

Take `C=CC(=O)N1CCC2(CC=C(c3c(-c4ccc(OC(F)F)nc4)c4c(N)ncnc4n3C)CC2)CC1` [Example 29, 1-(9-(4-amino-5-(6-(difluoromethoxy)pyridin-3-yl)-7-methyl-7H-pyrrolo[2,3-d]pyrimidin-6-yl)-3-azaspiro[5.5]undec-8-en-3-yl)prop-2-en-1-one]: the values for the GI50 at Ba/F3 FGFR2-N549K and at Ba/F3 FGFR2-V564F were 0.001 to 0.01 µM and 0.03 to 0.1 µM, respectively. The IC50 was 0.001 to 0.01 µM with KATO III; not above 0.001 µM at FGFR2; 0.001 to 0.01 µM in the assay on SNU-16; more than 0.1 µM on FGFR3; more than 0.1 µM on FGFR1. Also, on FGFR2, the “FGFR1 IC50/FGFR2 IC50” value is “H (a selectivity ratio greater than 500 but less than or equal to 1000)”. For the same molecule, the “FGFR3 IC50/FGFR2 IC50” value on FGFR2 is “J (a selectivity ratio greater than 2000)”.

In the case of `C=CC(=O)N1CCC2(CC=C(c3c(-c4ncc(C5CCOC5)cn4)c4c(N)ncnc4n3C)CC2)CC1` (stereo not drawn) [Example 52, 1-(9-(4-amino-7-methyl-5-(5-(tetrahydrofuran-3-yl)pyrimidin-2-yl)-7H-pyrrolo[2,3-d]pyrimidin-6-yl)-3-azaspiro[5.5]undec-8-en-3-yl)prop-2-en-1-one], the figures for the GI50 at Ba/F3 FGFR2-N549K and at Ba/F3 FGFR2-V564F were 0.001 to 0.01 µM and not above 0.001 µM, respectively. Besides, the IC50 on FGFR2 is 0.001 to 0.01 µM; on FGFR3, more than 0.1 µM; on FGFR1, more than 0.1 µM. Besides, at FGFR2, the “FGFR1 IC50/FGFR2 IC50” value is on record as “H (a selectivity ratio greater than 500 but less than or equal to 1000)”. For the same molecule, the “FGFR3 IC50/FGFR2 IC50” value on FGFR2 is “I (a selectivity ratio greater than 1000 but less than or equal to 2000)”.
